Laboratory results as given in PubChem BioAssay AID1963835 (Molecular Pharmacology Branch, DTP, NCI, 2024).

System: 699152-130-R-J1-PDC complex spheroid viability
Assay: Anticancer human tumor 699152-130-R-J1-PDC patient-derived pancreatic carcinoma cell line growth inhibition [POLQ]
Conditions: for IC50: curve of first compound; for viability, T/C: stronger effect = lower value
Outline: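 PDC + HUVEC + MSC complex spheroids; POLQ inhibitors ± partner drugs; top conc. at/near clinical Cmax, else 10 microM (SN-38 1 microM), half-log dilutions; 37 degrees C, 5% CO2.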

[1] = second compound 0.0316 µM, first compound 0.0316 µM
[2] = second compound 0.0316 µM, first compound 0.1 µM
[3] = second compound 0.0316 µM, first compound 0.316 µM
[4] = second compound 0.0316 µM, first compound 1 µM
[5] = second compound 0.0316 µM, first compound 3.16 µM
[6] = second compound 0.0316 µM, first compound 10 µM
[7] = second compound 0.1 µM, first compound 0.0316 µM
[8] = second compound 0.1 µM, first compound 0.1 µM
[9] = second compound 0.1 µM, first compound 0.316 µM
[10] = second compound 0.1 µM, first compound 1 µM
[11] = second compound 0.1 µM, first compound 3.16 µM
[12] = second compound 0.1 µM, first compound 10 µM
[13] = second compound 0.316 µM, first compound 0.0316 µM
[14] = second compound 0.316 µM, first compound 0.1 µM
[15] = second compound 0.316 µM, first compound 0.316 µM
[16] = second compound 0.316 µM, first compound 1 µM
[17] = second compound 0.316 µM, first compound 3.16 µM
[18] = second compound 0.316 µM, first compound 10 µM
[19] = second compound 1 µM, first compound 0.0316 µM
[20] = second compound 1 µM, first compound 0.1 µM
[21] = second compound 1 µM, first compound 0.316 µM
[22] = second compound 1 µM, first compound 1 µM
[23] = second compound 1 µM, first compound 3.16 µM
[24] = second compound 1 µM, first compound 10 µM
[25] = second compound 3.16 µM, first compound 0.0316 µM
[26] = second compound 3.16 µM, first compound 0.1 µM
[27] = second compound 3.16 µM, first compound 0.316 µM
[28] = second compound 3.16 µM, first compound 1 µM
[29] = second compound 3.16 µM, first compound 3.16 µM
[30] = second compound 3.16 µM, first compound 10 µM
[31] = second compound 10 µM, first compound 0.0316 µM
[32] = second compound 10 µM, first compound 0.1 µM
[33] = second compound 10 µM, first compound 0.316 µM
[34] = second compound 10 µM, first compound 1 µM
[35] = second compound 10 µM, first compound 3.16 µM
[36] = second compound 10 µM, first compound 10 µM
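Note: spheroids exposed to agents for 7 days before viability reading.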
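Throughout, for viability, T/C: percent of DMSO vehicle control viability so 100% = vehicle and 0% = no viable signal.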

CNCc1ccc(-c2[nH]c3cc(F)cc4c3c2CCNC4=O)cc1 + Nc1ccc(C#CCN(C(=O)Cc2ncc(C(F)(F)F)cc2C(F)(F)F)c2ccc(F)cc2)nn1
IC50 (second compound 0.0316 µM): > 10 µM
IC50 (second compound 0.1 µM): > 10 µM
IC50 (second compound 0.316 µM): > 10 µM
IC50 (second compound 1 µM): > 10 µM
IC50 (second compound 3.16 µM): > 10 µM
IC50 (second compound 10 µM): > 10 µM
viability, T/C [1]: 103%
viability, T/C [2]: 98.8%
viability, T/C [3]: 95.9%
viability, T/C [4]: 115%
viability, T/C [5]: 115%
viability, T/C [6]: 123%
viability, T/C [7]: 95.8%
viability, T/C [8]: 104%
viability, T/C [9]: 100%
viability, T/C [10]: 105%
viability, T/C [11]: 113%
viability, T/C [12]: 118%
viability, T/C [13]: 85.2%
viability, T/C [14]: 109%
viability, T/C [15]: 105%
viability, T/C [16]: 102%
viability, T/C [17]: 127%
viability, T/C [18]: 132%
viability, T/C [19]: 94.9%
viability, T/C [20]: 90%
viability, T/C [21]: 100%
viability, T/C [22]: 94.6%
viability, T/C [23]: 112%
viability, T/C [24]: 132%
viability, T/C [25]: 105%
viability, T/C [26]: 93.6%
viability, T/C [27]: 109%
viability, T/C [28]: 104%
viability, T/C [29]: 105%
viability, T/C [30]: 122%
viability, T/C [31]: 99.7%
viability, T/C [32]: 104%
viability, T/C [33]: 107%
viability, T/C [34]: 107%
viability, T/C [35]: 130%
viability, T/C [36]: 120%

Nc1ccn(C2OC(CO)C(O)C2(F)F)c(=O)n1 (stereo unspecified) + Nc1ccc(C#CCN(C(=O)Cc2ncc(C(F)(F)F)cc2C(F)(F)F)c2ccc(F)cc2)nn1
IC50 (second compound 0.0316 µM): 0.476 µM
IC50 (second compound 0.1 µM): 0.771 µM
IC50 (second compound 0.316 µM): 1.77 µM
IC50 (second compound 1 µM): 2.37 µM
IC50 (second compound 3.16 µM): 1.44 µM
IC50 (second compound 10 µM): 2.16 µM
viability, T/C [1]: 71.5%
viability, T/C [2]: 58.8%
viability, T/C [3]: 50.5%
viability, T/C [4]: 46.9%
viability, T/C [5]: 50%
viability, T/C [6]: 43%
viability, T/C [7]: 78.4%
viability, T/C [8]: 65.5%
viability, T/C [9]: 52%
viability, T/C [10]: 46%
viability, T/C [11]: 55.6%
viability, T/C [12]: 37.5%
viability, T/C [13]: 81.3%
viability, T/C [14]: 60.5%
viability, T/C [15]: 55.9%
viability, T/C [16]: 55.4%
viability, T/C [17]: 49.6%
viability, T/C [18]: 44.6%
viability, T/C [19]: 79.2%
viability, T/C [20]: 63.9%
viability, T/C [21]: 57.4%
viability, T/C [22]: 58.5%
viability, T/C [23]: 51.5%
viability, T/C [24]: 41%
viability, T/C [25]: 84.2%
viability, T/C [26]: 68.3%
viability, T/C [27]: 55.2%
viability, T/C [28]: 55.3%
viability, T/C [29]: 49%
viability, T/C [30]: 40%
viability, T/C [31]: 103%
viability, T/C [32]: 82.8%
viability, T/C [33]: 63.1%
viability, T/C [34]: 52.8%
viability, T/C [35]: 50.9%
viability, T/C [36]: 44.9%

O=C(c1cc(Cc2n[nH]c(=O)c3ccccc23)ccc1F)N1CCN(C(=O)C2CC2)CC1 + Nc1ccc(C#CCN(C(=O)Cc2ncc(C(F)(F)F)cc2C(F)(F)F)c2ccc(F)cc2)nn1
IC50 (second compound 0.0316 µM): > 10 µM
IC50 (second compound 0.1 µM): > 10 µM
IC50 (second compound 0.316 µM): > 10 µM
IC50 (second compound 1 µM): > 10 µM
IC50 (second compound 3.16 µM): > 10 µM
IC50 (second compound 10 µM): > 10 µM
viability, T/C [1]: 88.9%
viability, T/C [2]: 99.8%
viability, T/C [3]: 81.6%
viability, T/C [4]: 109%
viability, T/C [5]: 85.3%
viability, T/C [6]: 93.2%
viability, T/C [7]: 95%
viability, T/C [8]: 110%
viability, T/C [9]: 97.8%
viability, T/C [10]: 95.4%
viability, T/C [11]: 99.6%
viability, T/C [12]: 82.3%
viability, T/C [13]: 100%
viability, T/C [14]: 114%
viability, T/C [15]: 101%
viability, T/C [16]: 92.8%
viability, T/C [17]: 96.3%
viability, T/C [18]: 85.3%
viability, T/C [19]: 105%
viability, T/C [20]: 99.2%
viability, T/C [21]: 98.5%
viability, T/C [22]: 112%
viability, T/C [23]: 86.7%
viability, T/C [24]: 77.5%
viability, T/C [25]: 108%
viability, T/C [26]: 113%
viability, T/C [27]: 114%
viability, T/C [28]: 98.6%
viability, T/C [29]: 88%
viability, T/C [30]: 81.8%
viability, T/C [31]: 103%
viability, T/C [32]: 107%
viability, T/C [33]: 108%
viability, T/C [34]: 107%
viability, T/C [35]: 113%
viability, T/C [36]: 97.8%
